In BindingDB's records for patent US8623892 (Viamet Pharmaceuticals, 2014):

Molecular target: T1, Steroid 17-alpha-hydroxylase/17,20 lyase (Rattus norvegicus, UniProt P11715)
T1 sequence (P11715 whole entry): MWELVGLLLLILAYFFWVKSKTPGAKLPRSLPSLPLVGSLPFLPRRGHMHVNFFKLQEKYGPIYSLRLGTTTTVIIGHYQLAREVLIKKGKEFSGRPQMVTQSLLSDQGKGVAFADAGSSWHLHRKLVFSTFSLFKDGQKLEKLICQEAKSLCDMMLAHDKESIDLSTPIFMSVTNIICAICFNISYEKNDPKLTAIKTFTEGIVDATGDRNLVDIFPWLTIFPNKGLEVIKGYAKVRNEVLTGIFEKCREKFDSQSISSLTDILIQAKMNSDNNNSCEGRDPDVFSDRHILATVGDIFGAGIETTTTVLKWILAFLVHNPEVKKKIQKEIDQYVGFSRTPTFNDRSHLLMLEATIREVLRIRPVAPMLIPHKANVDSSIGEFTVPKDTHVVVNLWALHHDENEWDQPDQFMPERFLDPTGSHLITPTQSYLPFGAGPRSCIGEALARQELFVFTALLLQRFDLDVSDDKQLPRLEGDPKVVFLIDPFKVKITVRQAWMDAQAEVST
Assay: Inhibition Assay
Text: If a weakly binding metal-binding group is utilized, potency may be suboptimal. On the other hand, if a very tightly binding metal-binding group is utilized, selectivity for the target enzyme versus related metalloenzymes may be suboptimal. The lack of optimal selectivity can be a cause for clinical toxicity due to unintended inhibition of these off-target metalloenzymes. […] It is believed that this off-target inhibition is caused primarily by the indiscriminate binding of the currently utilized 1-imidazole to iron in the active site of CYP2C9, CYP2C19 and CYP3A4.

- IC50: 220 nM
Compound: CC(C)C(O)(c1ccc2cc(OC(F)F)c(OC(F)F)cc2c1)c1c[nH]nn1 (stereo unspecified) [US8623892, 3]
